Results on one molecule are retold here after publication PMC5175178, “Development of an in-vivo active reversible butyrylcholinesterase inhibitor” (Scientific Reports, 2016).

The subject of series [1] is scopolamine-induced memory impairment in mice. Put plainly: Two-day radial arm water maze task, scopolamine-induced memory impairment. In kind it is in vivo, C57BL/6J mice.
Experimental: In this task incorrect arm entries (i.e., errors) are counted. […] The mice had free access to food and water, and the ambient temperature and humidity of the room were kept constant throughout all of the tests. For the behavioral tasks, the mice were selected at random, and each group consisted of 8 to 10 mice dose^−1. The experiments were performed between 08:00 and 14:00. Immediately after these in-vivo assays, the animals were euthanized by cervical dislocation. […] All efforts were made to minimize the number of mice used and their suffering.
C57BL/6J mice were subjected to the radial arm water maze paradigm^34,35. The main part of the apparatus (Panlab Harvard Apparatus, Spain) consists of a 6-arm maze in a pool filled with water to approximately 10 cm from the top, to be high enough to cover the hidden platform by about 0.5 cm, but also low enough that the visible platform was not covered. The pool was regularly cleaned of any debris left by the mice. The temperature of the water was kept constant during testing (23 ±1 °C). The tester remained in the same position throughout the testing, thus providing an additional visual cue for the mice.
On day 1, 15 trials were run in five blocks of three. Each trial lasted up to 60 s. The start arm was varied for each trial, with the goal arm remaining constant for a given individual for both days^34,35. For the first 12 trials, the platform was alternately visible, then hidden, and then hidden for the last three trials. On day 2, the mice (without drug treatment on this day) were run in the same manner as on day 1, but the platform was hidden for all of the trials. As errors have been reported to be the most sensitive measure in this assay^34, the number of errors (i.e., incorrect arm entries made) was counted in a 60 s time-frame. Incorrect arm entries occurred when the mouse selected an arm that was not the goal arm. Entries into the goal arm were not counted as errors, even if the platform was not located. An entry was considered to occur when all four legs of the mice had entered the alley completely. […] If the platform was not located within 60 s, the mice were gently guided through the water by placing a hand behind the animal to direct its swimming direction toward the platform. […] After that, the mouse was gently removed from the platform and thoroughly dried using cellulose paper before placing it back into its home cage under a heat source (a heat lamp).
For the statistical analysis of the data obtained, to minimize the impact of individual trial variability, each mouse error for the finding of the platform for three consecutive trials were averaged, giving five data points (5 trial blocks): T1 (trials 1–3), T2 (trials 4–6), T3 (trials 7–9), T4 (trials 10–12) and T5 (trials 13–15), separately for each day of testing.
Another series has as its system mice. The series is described as follows: Rotarod test, motor coordination. To be noted: for Time spent on the rotarod (s ±SEM) 6 rpm / Time spent on the rotarod (s ±SEM) 18 rpm / Time spent on the rotarod (s ±SEM) 24 rpm: 60 min. In general terms: Falling from the rotarod earlier than controls is read as motor impairment.
For another series, the system named is SH-SY5Y cells. The series is described as follows: Cytotoxicity in SH-SY5Y cells, MTS cell viability assay. To be noted: 48 h. Background: Tetrazolium assays rely on reduction of a dye to a coloured formazan, in cell work by metabolically active cells.
The target in a further series is T1, mAChE (Mus musculus, UniProt P21836).
T1 construct: donated by Florian Nachon (IBS, Grenoble)
T1 sequence (P21836 32-614): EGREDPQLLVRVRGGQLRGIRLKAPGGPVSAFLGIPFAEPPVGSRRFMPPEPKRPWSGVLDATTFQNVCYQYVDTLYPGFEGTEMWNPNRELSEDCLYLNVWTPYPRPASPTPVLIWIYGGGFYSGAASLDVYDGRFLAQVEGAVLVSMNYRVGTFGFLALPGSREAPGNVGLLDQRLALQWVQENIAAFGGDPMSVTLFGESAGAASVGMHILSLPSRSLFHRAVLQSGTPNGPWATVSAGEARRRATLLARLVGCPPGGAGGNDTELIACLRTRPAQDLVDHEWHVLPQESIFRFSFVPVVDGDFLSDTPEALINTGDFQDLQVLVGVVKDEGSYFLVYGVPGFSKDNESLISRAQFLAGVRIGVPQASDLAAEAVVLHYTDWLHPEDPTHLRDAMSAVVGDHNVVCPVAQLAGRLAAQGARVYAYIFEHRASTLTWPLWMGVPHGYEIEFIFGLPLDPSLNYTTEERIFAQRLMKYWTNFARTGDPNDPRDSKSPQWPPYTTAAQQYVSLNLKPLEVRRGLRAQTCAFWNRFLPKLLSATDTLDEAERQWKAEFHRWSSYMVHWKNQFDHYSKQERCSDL
The series is described as follows: In-vitro inhibitory activity against mAChE, method of Ellman. The format is biochemical, murine.

Series [2] concerns cryopreserved human hepatocytes. The series is described as follows: Metabolite identification in cryopreserved human hepatocytes, LC-HRMS. Particulars: 2 h with human cryopreserved hepatocytes.
Experimental: The plasma metabolic stability and hepatic clearance were estimated by the substrate depletion method. Qualitative aspect of metabolic degradation was performed by metabolite identification using LC-high resolution mass spectrometry (HRMS). […] Principal Phase I (oxidative) and Phase II (conjugative) metabolites have been detected and characterized following previously described preocedure^27. […] Samples were taken at time 0 and the end of the incubation (2 h), respectively. A control sample (no test compound added) was also prepared and incubated for the same period of time. After the reaction was stopped by addition of acetonitrile, the supernatants were subjected to HPLC-MS analysis. Separation of analytes was achieved using Acquity HSS T3 column (100 × 2.1 mm, 1.8 µ, Waters). The sample solutions-supernatants (5 µL) were injected and eluted at a flow rate of 0.5 mL min^–1, using a linear gradient of mobile phase A (0.1% formic acid in water) and mobile phase B (0.1% formic acid in MeCN). […] Retention times and the respective MS and MS/MS spectra of the species detected in the incubated sample and not in time-zero or blank sample were identified and recorded.

Experimental for SH-SY5Y cells: Prior to cell treatments, complete medium was replaced with reduced-serum medium (i.e., with 2% fetal bovine serum).
After 24 h (a) or 48 h (b), the cell viability was evaluated using the MTS assay. The control group (DMSO) was considered as 100% cell viability. Data are means ±SD of at least three independent experiments, each carried out in triplicate (a) and quadruplicate (b).
The cells were treated as described above, and cell viability was assessed after 48 h using the CellTiter 96 Aqueous One Solution Cell Proliferation Assay (Promega, Madison, WI, USA), according to the manufacturer instructions. […] The data are presented as percentages of the control (DMSO).
Experimental for mAChE: The inhibitory potencies of the compounds against the ChEs were determined using the method of Ellman[32].
The enzyme solutions were prepared by dilution of the concentrated stocks in phosphate-buffered solution (0.1 M, pH 8.0). […] The reactions were started by addition of the substrate, at room temperature. The final content of the organic solvent (DMSO) was always 1%. […] To determine the blank value (b), phosphate-buffered solution replaced the enzyme solution. The initial velocity (v0) was calculated from the slope of the linear trend obtained, with each measurement carried out in triplicate. […] The compounds were added to each well at a final concentration of 10 μM. […] The initial velocities in the presence of the test compounds (vi) were calculated. The inhibitory potencies are expressed as the residual activities (RA = (vi – b) / (vo – b)). […] The IC50 values were obtained by plotting the residual enzyme activities against the applied inhibitor concentrations, with the experimental data fitted to Equation (1):
where X is the logarithm of the inhibitor concentration, and Y is the residual activity. For the fitting procedure, the Gnuplot software and an in-house python script were used.

`COCCN(CC1CCCN(Cc2ccccc2)C1)S(=O)(=O)c1ccc2ccccc2c1` (racemic) [compound 2, (±)-N-((1-benzylpiperidin-3-yl)methyl)-N-(2-methoxyethyl)naphthalene-2-sulfonamide]: in series [1] (scopolamine + 30 mg kg^−1), the “errors at the end of the acquisition phase (day 1)” value was less than 1 error. Moreover, the “errors in the last trial block of day two” value in series [1] (scopolamine + 30 mg kg^−1 on day 1) is less than 1 error. Further, in the series with mice (30 mg kg^-1 IP), the “Time spent on the rotarod (s ±SEM) 6 rpm” value is 60.0 s, the “Time spent on the rotarod (s ±SEM) 18 rpm” value was 60.0 s and the “Time spent on the rotarod (s ±SEM) 24 rpm” value stood at 60 s. In the series on mice (100 mg kg^-1 IP), the “Time spent on the rotarod (s ±SEM) 6 rpm” value amounted to 60.0 s, the “Time spent on the rotarod (s ±SEM) 18 rpm” value was found to be 53.3 ± 6.8 s and the “Time spent on the rotarod (s ±SEM) 24 rpm” value was 52.3 ± 6.8 s. The “impact on motor coordination” value in the series on mice (even at 100 mg kg^−1) was “did not induce motor deficits”. Further, in the series with SH-SY5Y cells, the “LD50 SH-SY5Y cells” value was 31.40 µM. In addition, on mAChE (residual activity at 10 μM, %RA > 75% was considered as no inhibition, Table 1), the “%RA at 10 µM ±SEM mAChE” value is given as 97% ± 2%. In addition, the “%RA at 10 µM ±SEM mAChE” value on mAChE (residual activity at 10 µM, %RA >75% was considered no inhibition, Supplementary Table 1) was 97% ±2%. Besides, the “possible metabolites identified with LC-HRMS” value in series [2] was “N-debenzylated, demethylated, and a demethylated + glucoronide products”.
